Reference: patent US11717553B2, “Combined plant extract for getting rid of mites and acne and preparation method and use thereof” (Nanjing Institute for Comprehensive Utilization of Wild …, priority 2020, dated 2023)
Like-named read-outs stand apart in the source and are kept apart here.

What was measured:
human follicle mites [1] = assay: In vitro experiment of mite elimination by combined plant extracts and single plant extracts (Example 4); conditions: 4 h
From the text: (§1) Mites for experiments: follicle mites were obtained with a transparent tape sticking overnight. Specifically, subjects were required to clean their face thoroughly and stick a transparent tape which is 6 cm long and 1.5 cm wide to their foreheads, cheeks, noses, chins or other sites before going to bed. The tape was peeled off the next day, stuck on a glass slide and observed under a microscope.
Preparation of samples to be tested: a total of 7 samples of combined plant extracts and single plant extracts prepared according to Examples 1-3 and Comparative Examples 1-4, were sequentially denoted as samples no. 1-7 to be tested, and diluted with deionized water to a 25% concentration for later use.
1.2.1 Test groups: the test solutions were denoted as no. 1-7 sequentially, a 2% metronidazole solution was used as the positive control group, and liquid paraffin was used as the blank control group. 10 follicle mites were included in each group. […]
(§2) 1.2.2 Observation method: a micropipette was used to draw 200 μL of an agent solution and drop it on a slide. […] The tapes where follicle mites were detected were stuck on the slides to allow sufficient contact of the solution and the mites. […]
(§3) 1.2.3 Determination of death: the mites whose limbs or feet were immobile under a 400× microscope for 1 min were initially determined to be dead, and those who still immobile after 30 min were diagnosed as dead. […]

human follicle mites [2] = conditions: 4 h
From the text: as §1
Preparation of samples to be tested: The combined plant extract prepared according to Example 1 was diluted with deionized water to obtain final concentrations of 100%, 50%, 25%, 12.5%, 6.25%, and 3.125% for later use.
1.2.1 Test groups: the combined plant extract to be tested was divided into 6 concentration gradient groups, a 2% metronidazole solution was used as the positive control group, and liquid paraffin was used as the blank control group. 10 follicle mites were included in each group. […]
as §2, §3

Cc1ncc([N+](=O)[O-])n1CCO [Metronidazole, metronidazole]
Corrected mortality rate (%) ± SE (human follicle mites [1]): 56.73 ± 4.07% | Corrected mortality rate (%) ± SE (human follicle mites [2]): 54.66 ± 4.38%
